Measurements published in patent publication US12281225B2, “Process for preparing stable polymers containing vinylimidazole” (BASF SE, priority 2018, dated 2025).

Tests used:
[1] = Physical stability; visual assessment (color, turbidity, phase separation); assay type: physicochemical; set-up: key: ++: no discernible change with respect to color, turbidity or phase separation; +: marginal change in color number, somewhat increased Tyndall effect but no turbidity; 0: easily discernible increase in color number and moderate turbidity−no phase separation; −: turbidity and change in color number readily discernible by visual assessment; −−: strong color change with strong turbidity and incipient phase separation
Excerpt: Physical stability; visual assessment according to:
++=no discernible change with respect to color, turbidity or phase separation; +=marginal change in color number, somewhat increased Tyndall effect but no turbidity; 0=easily discernible increase in color number and moderate turbidity−no phase separation; − turbidity and change in color number readily discernible by visual assessment; −− strong color change with strong turbidity and incipient phase separation.
Before storage, all batches could be rated ++ (no turbidity or phase separation; no influence of the biocide on the color number of the product).

[2] = system: Bacteria: Escherichia coli, Staphylococcus aureus, Pseudomonas aeruginosa, Pseudomonas putida, Burkholderia cepacia, Alcaligenes faecalis; assay: Preservation test with periodic inoculation, bacteria assessment; assay type: cell-based; details: sample stored 60 d at 40° C.
Experimental: (§1) Microbiological results at the start (freshly formulated, i.e. 4-week test series is started immediately) and after 60 days of storage at 40° C. (i.e. the 4-week microbial testing is started with the sample stored at 40° C. for 60 days)
(§2) The test described below is carried out in order to ascertain the preserving effect of chemical preservatives in aqueous products and systems, the principle of the described method reflecting the efficacy of chemical preservatives with respect to pot-maintenance of aqueous products/systems under conditions corresponding to the use of laundry products/consumer products by the consumer. For this purpose, the preservatives to be tested are added in those concentrations which correspond to from the literature or to the manufacturer data from the suppliers (e.g. Thor, Speyer). In said test, our orientation was toward the upper range, which, with the exception of VI-containing polymers, had always led to excellent results in the case of aqueous polymers for laundry.
(§3) A constant microorganism load is achieved by periodic inoculation of the test batches. Before the swabs of each batch made respectively immediately in parallel with the inoculation. The assessment is made on the basis of the microbial growth of the streaks.
(§4) When carrying out said tests, 25 g of the polymer to be tested are weighed in each case into a vessel with a screw cap. The preservatives to be tested are each added in separate batches according to the specified use concentrations. An unpreserved product sample was used in each case for the growth control. Two days after the addition of the preservative, the samples are infected with 0.5 ml of inoculum (2% w/w). The titer of this inoculant solution is 10^9 organisms per ml. The following microorganisms are the test organisms for the preservation test:
(§5) • Escherichia coli • Staphylococcus aureus • Pseudomonas aeruginosa • Pseudomonas putida • Burkholderia cepacia • Alcaligenes faecalis Yeast: • Candida albicans • Candida valida • Rhodotorula rura • Saccharomyces cerevisiae
(§6) The test batches are inoculated four times altogether and once a week and are streaked on an agar plate once a week; the first streaking is done immediately before the new inoculation. Microbial growth on the agar surface is assessed after a three-day incubation at 25° C. As a precaution, negative swabs are additionally observed for a further three days and reassessed. The preserving effect is effected in a semiquantitative method via the growth of the individual streaks in accordance with the assessment from − via + to +++. The preservative result is repeatedly demonstrably robust, i.e. +++− defines the microbial growth.
(§7) When assessing the results, it is assumed that a preservative can be regarded as good if there are batches under the above-described laboratory conditions for a period of four weeks without microbial invasion of the sample, and that, even after the fourth inoculation, no microbial attacks occur growth can be identified. • −−: no growth • −: slight growth, max. 100 colonies • 0: moderate growth, max. 400 colonies • +: uniform growth with individual colonies still easily identifiable • ++: strong growth; too many colonies to be counted, already some extensive growth

[3] = system: Yeast: Candida albicans, Candida valida, Rhodotorula rura, Saccharomyces cerevisiae; assay: Preservation test with periodic inoculation, yeast assessment; assay type: cell-based; details: for Start sample measurement, yeast assess., 4th inoculation: freshly formulated; for 60 d 40° C., yeast assess., 4th inoculation: sample stored 60 d at 40° C.
Experimental: as §1, §2, §3, §4, §5, §6, §7

CCCCCCCCCCCCCCCC[n+]1ccccc1 [CPC, cetylpyridinium chloride]
− (slight growth, max. 100 colonies): 60 d 40° C., bact. assess., 4th inoculation ([2]; Polymer P1) | 60 d 40° C., bact. assess., 4th inoculation ([2]; Polymer P2) | 60 d 40° C., bact. assess., 4th inoculation ([2]; Polymer P3) | 60 d 40° C., bact. assess., 4th inoculation ([2]; Polymer P5 (HP56)) | 60 d 40° C., bact. assess., 4th inoculation ([2]; Polymer P6) | 60 d 40° C., bact. assess., 4th inoculation ([2]; Polymer P7) | Start sample measurement, yeast assess., 4th inoculation ([3]; Polymer P1) | 60 d 40° C., yeast assess., 4th inoculation ([3]; Polymer P1) | Start sample measurement, yeast assess., 4th inoculation ([3]; Polymer P2) | 60 d 40° C., yeast assess., 4th inoculation ([3]; Polymer P2) | Start sample measurement, yeast assess., 4th inoculation ([3]; Polymer P3) | Start sample measurement, yeast assess., 4th inoculation ([3]; Polymer P4) | Start sample measurement, yeast assess., 4th inoculation ([3]; Polymer P5 (HP56)) | Start sample measurement, yeast assess., 4th inoculation ([3]; Polymer P6) | Start sample measurement, yeast assess., 4th inoculation ([3]; Polymer P7) | Start sample measurement, yeast assess., 4th inoculation ([3]; Polymer P8) | Start sample measurement, yeast assess., 4th inoculation ([3]; Polymer P9) | 60 d 40° C., yeast assess., 4th inoculation ([3]; Polymer P9)
+: Physical stability, 60 d 40° C.* ([1]; Polymer P1 with stabilizer) | Physical stability, 60 d 40° C.* ([1]; Polymer P2 with stabilizer) | Physical stability, 60 d 40° C.* ([1]; Polymer P3 with stabilizer) | Physical stability, 60 d 40° C.* ([1]; Polymer P4 with stabilizer) | Physical stability, 60 d 40° C.* ([1]; Polymer P5 (HP56) with stabilizer) | Physical stability, 60 d 40° C.* ([1]; Polymer P6 with stabilizer) | Physical stability, 60 d 40° C.* ([1]; Polymer P7 with stabilizer) | Physical stability, 60 d 40° C.* ([1]; Polymer P8 with stabilizer) | Physical stability, 60 d 40° C.* ([1]; Polymer P9 with stabilizer)
0 (moderate growth, max. 400 colonies): 60 d 40° C., bact. assess., 4th inoculation ([2]; Polymer P4) | 60 d 40° C., yeast assess., 4th inoculation ([3]; Polymer P3) | 60 d 40° C., yeast assess., 4th inoculation ([3]; Polymer P4) | 60 d 40° C., yeast assess., 4th inoculation ([3]; Polymer P5 (HP56)) | 60 d 40° C., yeast assess., 4th inoculation ([3]; Polymer P6) | 60 d 40° C., yeast assess., 4th inoculation ([3]; Polymer P7) | 60 d 40° C., yeast assess., 4th inoculation ([3]; Polymer P8)
